Experimental findings from ChEMBL document CHEMBL1221319, “Synthesis and biological evaluation of vitamin K derivatives as angiogenesis inhibitor” (Bioorg Med Chem, 2010) are described below.

For data set [1], the system named is Aorta. In words: Ex vivo antiangiogenic activity in Wistar rat aortic ring assessed as inhibition of angiogenesis at 100 uM after 7 days by phase-contrast microscopy. Type of data set: functional, tissue-based.
Data set [2] deals with Aorta. The data set can be described thus: Ex vivo antiangiogenic activity in Wistar rat aortic ring assessed as decrease of microvessel length at 100 uM after 7 days by phase-contrast microscopy. Type of data set: functional, tissue-based.
Data set [3] is described as follows: Cytotoxicity against HDF. Conditions: human.
The subject of data set [4] is HUVEC. In words: Antiproliferative activity against HUVEC at 5 to 100 uM after 72 hrs by WST-1 assay. Type of data set: functional, cell-based. To be noted: Homo sapiens. (In general: Tetrazolium assays rely on reduction of a dye to a coloured formazan, in cell work by metabolically active cells.)
For data set [5], the system named is HUVEC. The data set can be described thus: Inhibition of VEGF-induced HUVEC migration at 100 uM after 6 hrs by gelatin-coated Boyden chamber assay. Type of data set: functional, cell-based. To be noted: Homo sapiens.
The test system of data set [6] is Aorta. The data set can be described thus: Ex vivo antiangiogenic activity in Wistar rat aortic ring assessed as inhibition of angiogenesis after 7 days by phase-contrast microscopy. Type of data set: functional, tissue-based.
In data set [7] the test system is HUVEC. The data set can be described thus: Antiangiogenic activity in HUVEC assessed as reduction of tube formation at 100 uM after 12 hrs by phase-contrast microscopy. Type of data set: functional, cell-based. Conditions: Homo sapiens.
Data set [8] deals with Aorta. In words: Ex vivo antiangiogenic activity in Wistar rat aortic ring assessed as inhibition of angiogenesis at 50 uM after 7 days by phase-contrast microscopy. Type of data set: functional.
The next data set deals with HCT-116. The data set can be described thus: Cytotoxicity against human HCT116 cells. Type of data set: functional.

The source made the active and inactive calls. The calls are words filed in the database; no cut-off is given here.

Turning to `CC1=C(Br)C(=O)c2ccccc2C1=O`, the outcome with Aorta [1] was Active.
Still for that read-out and setting: the entry for `CNC1=C(C)C(=O)c2ccccc2C1=O` is “Active”.
Turning to `CCCCCCCCCNC1=C(C)C(=O)c2ccccc2C1=O`, the result in the data set on Aorta [1] and in the data set on Aorta [2] was inactive.
Take `CCCCCCNC1=C(C)C(=O)c2ccccc2C1=O`: the outcome in the data set on Aorta [1] and in the data set with Aorta [2] was inactive.
For `CC1=C(C2=C(C)C(=O)c3ccccc3C2=O)C(=O)c2ccccc2C1=O`, the result in the data set on Aorta [1] was inactive.
Same read-out and setting: the same measure for `CCC1=C(C)C(=O)c2ccccc2C1=O`: “Active”.
Take `CCCCC1=C(C)C(=O)c2ccccc2C1=O`: the result in the data set with Aorta [1] was inactive. Besides, in the data set on Aorta [2], the outcome was Active.
The matching figures for `CCCCCCCC1=C(C)C(=O)c2ccccc2C1=O`: “inactive” and “inactive”.
On the same counts, the results for `CCCCCCCCCCC1=C(C)C(=O)c2ccccc2C1=O` are “inactive” and “inactive”.
As for `CCCNC1=C(C)C(=O)c2ccccc2C1=O`, the Activity is above 100 µM in [3], “Dose-dependent effect” in the data set on Aorta [6], above 50 µM with Aorta [8] and above 100 µM in the data set with HCT-116. Moreover, the result in the data set with HUVEC [4], with Aorta [1], with Aorta [2] and in the data set on HUVEC [7] was Active. Also, in the data set with HUVEC [5], the inhibition result was “inactive”.
